Tested on: 931267-113-T-J1-PDC KRAS spheroid with HUVEC/MSC, viability
Assay: Anticancer human tumor 931267-113-T-J1-PDC patient-derived colon adenocarcinoma cell line growth inhibition [KRAS2]
Details: for viability, T/C: stronger effect = lower value
Summary of the method: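 Combination screen of spheroid viability in tumor-cell co-cultures with endothelial (HUVEC) and mesenchymal stem cell stroma. Each agent was tested in half-log dilutions, topping at clinical Cmax or at 10 microM without a known Cmax.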

[1] = curve of first compound, second compound 0.1 µM
[2] = curve of first compound, second compound 0.316 µM
[3] = curve of first compound, second compound 1 µM
[4] = curve of first compound, second compound 3.16 µM
[5] = curve of first compound, second compound 10 µM
[6] = second compound 0.1 µM, first compound 0.0316 µM
[7] = second compound 0.1 µM, first compound 0.1 µM
[8] = second compound 0.1 µM, first compound 0.316 µM
[9] = second compound 0.1 µM, first compound 1 µM
[10] = second compound 0.1 µM, first compound 3.16 µM
[11] = second compound 0.1 µM, first compound 10 µM
[12] = second compound 0.316 µM, first compound 0.0316 µM
[13] = second compound 0.316 µM, first compound 0.1 µM
[14] = second compound 0.316 µM, first compound 0.316 µM
[15] = second compound 0.316 µM, first compound 1 µM
[16] = second compound 0.316 µM, first compound 3.16 µM
[17] = second compound 0.316 µM, first compound 10 µM
[18] = second compound 1 µM, first compound 0.0316 µM
[19] = second compound 1 µM, first compound 0.1 µM
[20] = second compound 1 µM, first compound 0.316 µM
[21] = second compound 1 µM, first compound 1 µM
[22] = second compound 1 µM, first compound 3.16 µM
[23] = second compound 1 µM, first compound 10 µM
[24] = second compound 3.16 µM, first compound 0.0316 µM
[25] = second compound 3.16 µM, first compound 0.1 µM
[26] = second compound 3.16 µM, first compound 0.316 µM
[27] = second compound 3.16 µM, first compound 1 µM
[28] = second compound 3.16 µM, first compound 3.16 µM
[29] = second compound 3.16 µM, first compound 10 µM
[30] = second compound 10 µM, first compound 0.0316 µM
[31] = second compound 10 µM, first compound 0.1 µM
[32] = second compound 10 µM, first compound 0.316 µM
[33] = second compound 10 µM, first compound 1 µM
[34] = second compound 10 µM, first compound 3.16 µM
[35] = second compound 10 µM, first compound 10 µM
[36] = second compound 0.1 µM, first compound 0.000316 µM
[37] = second compound 0.1 µM, first compound 0.001 µM
[38] = second compound 0.1 µM, first compound 0.00316 µM
[39] = second compound 0.1 µM, first compound 0.01 µM
[40] = second compound 0.316 µM, first compound 0.000316 µM
[41] = second compound 0.316 µM, first compound 0.001 µM
[42] = second compound 0.316 µM, first compound 0.00316 µM
[43] = second compound 0.316 µM, first compound 0.01 µM
[44] = second compound 1 µM, first compound 0.000316 µM
[45] = second compound 1 µM, first compound 0.001 µM
[46] = second compound 1 µM, first compound 0.00316 µM
[47] = second compound 1 µM, first compound 0.01 µM
[48] = second compound 3.16 µM, first compound 0.000316 µM
[49] = second compound 3.16 µM, first compound 0.001 µM
[50] = second compound 3.16 µM, first compound 0.00316 µM
[51] = second compound 3.16 µM, first compound 0.01 µM
[52] = curve of first compound, second compound 0.0316 µM
[53] = second compound 0.0316 µM, first compound 0.0316 µM
[54] = second compound 0.0316 µM, first compound 0.1 µM
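Note: compound exposure lasted 7 days before the readout.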
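Throughout, for viability, T/C: 100% = DMSO vehicle control viability.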

## O=C(c1cc(Cc2n[nH]c(=O)c3ccccc23)ccc1F)N1CCN(C(=O)C2CC2)CC1 + COc1cc2nc(C)nc(NC(C)c3cc(N)cc(C(F)(F)F)c3)c2cc1OC1CCOC1
[1]
  IC50: > 10000 nM
[2]
  IC50: > 10000 nM
[3]
  IC50: > 10000 nM
[4]
  IC50: > 10000 nM
[5]
  IC50: > 10000 nM
[6]
  viability, T/C: 78.7%
[7]
  viability, T/C: 81.4%
[8]
  viability, T/C: 85.7%
[9]
  viability, T/C: 87.7%
[10]
  viability, T/C: 94.6%
[11]
  viability, T/C: 113%
[12]
  viability, T/C: 85.1%
[13]
  viability, T/C: 99.7%
[14]
  viability, T/C: 88.2%
[15]
  viability, T/C: 70.9%
[16]
  viability, T/C: 85.6%
[17]
  viability, T/C: 73%
[18]
  viability, T/C: 89.6%
[19]
  viability, T/C: 92.1%
[20]
  viability, T/C: 99.1%
[21]
  viability, T/C: 112%
[22]
  viability, T/C: 97.5%
[23]
  viability, T/C: 84.1%
[24]
  viability, T/C: 107%
[25]
  viability, T/C: 87.5%
[26]
  viability, T/C: 95.5%
[27]
  viability, T/C: 94.4%
[28]
  viability, T/C: 106%
[29]
  viability, T/C: 105%
[30]
  viability, T/C: 101%
[31]
  viability, T/C: 112%
[32]
  viability, T/C: 94.7%
[33]
  viability, T/C: 98.3%
[34]
  viability, T/C: 90.3%
[35]
  viability, T/C: 97.3%

## CC(C)NCC(C(=O)N1CCN(c2ncnc3c2C(C)CC3O)CC1)c1ccc(Cl)cc1 (stereo not given) + COc1cc2nc(C)nc(NC(C)c3cc(N)cc(C(F)(F)F)c3)c2cc1OC1CCOC1
[1]
  IC50: > 10000 nM
[2]
  IC50: 5270 nM
[3]
  IC50: 4360 nM
[4]
  IC50: 1620 nM
[5]
  IC50: < 31.6 nM
[6]
  viability, T/C: 87.4%
[7]
  viability, T/C: 105%
[8]
  viability, T/C: 104%
[9]
  viability, T/C: 77.2%
[10]
  viability, T/C: 58.3%
[11]
  viability, T/C: 59.9%
[12]
  viability, T/C: 106%
[13]
  viability, T/C: 91.6%
[14]
  viability, T/C: 83.3%
[15]
  viability, T/C: 76.2%
[16]
  viability, T/C: 56%
[17]
  viability, T/C: 40.4%
[18]
  viability, T/C: 88%
[19]
  viability, T/C: 76.9%
[20]
  viability, T/C: 72.7%
[21]
  viability, T/C: 70.4%
[22]
  viability, T/C: 54%
[23]
  viability, T/C: 37.9%
[24]
  viability, T/C: 78.5%
[25]
  viability, T/C: 76.7%
[26]
  viability, T/C: 67.2%
[27]
  viability, T/C: 54.6%
[28]
  viability, T/C: 42.7%
[29]
  viability, T/C: 20.6%
[30]
  viability, T/C: 0.91%
[31]
  viability, T/C: 1.02%
[32]
  viability, T/C: 0.68%
[33]
  viability, T/C: 0.76%
[34]
  viability, T/C: 0.45%
[35]
  viability, T/C: 0.48%

## CN(C)C/C=C/C(=O)Nc1cc2c(Nc3ccc(F)c(Cl)c3)ncnc2cc1O[C@H]1CCOC1 + C=CC(=O)N1CCN(c2nc(=O)n(-c3c(C)ccnc3C(C)C)c3nc(-c4c(O)cccc4F)c(F)cc23)C(C)C1
[1]
  IC50: > 100 nM
[2]
  IC50: > 100 nM
[3]
  IC50: > 100 nM
[4]
  IC50: > 100 nM
[5]
  IC50: > 100 nM
[36]
  viability, T/C: 103%
[37]
  viability, T/C: 91.6%
[38]
  viability, T/C: 76.1%
[39]
  viability, T/C: 83.5%
[6]
  viability, T/C: 115%
[7]
  viability, T/C: 117%
[40]
  viability, T/C: 97.5%
[41]
  viability, T/C: 105%
[42]
  viability, T/C: 95.1%
[43]
  viability, T/C: 96.1%
[12]
  viability, T/C: 117%
[13]
  viability, T/C: 98.6%
[44]
  viability, T/C: 110%
[45]
  viability, T/C: 121%
[46]
  viability, T/C: 83.7%
[47]
  viability, T/C: 90.8%
[18]
  viability, T/C: 84.9%
[19]
  viability, T/C: 96.5%
[48]
  viability, T/C: 138%
[49]
  viability, T/C: 128%
[50]
  viability, T/C: 117%
[51]
  viability, T/C: 95%
[24]
  viability, T/C: 126%
[25]
  viability, T/C: 105%
Second compound 10 µM, first compound 0.000316 µM
  viability, T/C: 146%
Second compound 10 µM, first compound 0.001 µM
  viability, T/C: 138%
Second compound 10 µM, first compound 0.00316 µM
  viability, T/C: 119%
Second compound 10 µM, first compound 0.01 µM
  viability, T/C: 99.2%
[30]
  viability, T/C: 110%
[31]
  viability, T/C: 108%

## CC1COCCN1c1cc(-c2ccnn2C)c2ccnc(-c3ccn[nH]3)c2n1 (stereo not given)
Compound 0.1 µM
  viability, T/C: 23.9% [middle of 5 runs]
Compound 0.316 µM
  viability, T/C: 20.2% [middle of 5 runs]
Compound 1 µM
  viability, T/C: 21.8% [middle of 5 runs]
Compound 3.16 µM
  viability, T/C: 20.6% [middle of 5 runs]
Curve of compound
  IC50: 54.7 nM [middle of 5 runs]

## CC(C)NCC(C(=O)N1CCN(c2ncnc3c2C(C)CC3O)CC1)c1ccc(Cl)cc1 (stereo not given) + C=CC(=O)N1CCN(c2nc(OCC3CCCN3C)nc3c2CCN(c2cccc4cccc(C)c24)C3)CC1CC#N
[52]
  IC50: > 10000 nM
[1]
  IC50: 6280 nM
[2]
  IC50: 5100 nM
[3]
  IC50: 1810 nM
[4]
  IC50: < 31.6 nM
[53]
  viability, T/C: 111%
[54]
  viability, T/C: 86%
Second compound 0.0316 µM, first compound 0.316 µM
  viability, T/C: 72.4%
Second compound 0.0316 µM, first compound 1 µM
  viability, T/C: 79.8%
Second compound 0.0316 µM, first compound 3.16 µM
  viability, T/C: 64.3%
Second compound 0.0316 µM, first compound 10 µM
  viability, T/C: 50%
[6]
  viability, T/C: 96.8%
[7]
  viability, T/C: 86.4%
[8]
  viability, T/C: 83.1%
[9]
  viability, T/C: 101%
[10]
  viability, T/C: 62.1%
[11]
  viability, T/C: 41.8%
[12]
  viability, T/C: 100%
[13]
  viability, T/C: 89.6%
[14]
  viability, T/C: 95.4%
[15]
  viability, T/C: 64.7%
[16]
  viability, T/C: 73%
[17]
  viability, T/C: 30.4%
[18]
  viability, T/C: 79.4%
[19]
  viability, T/C: 83.1%
[20]
  viability, T/C: 64.5%
[21]
  viability, T/C: 60.1%
[22]
  viability, T/C: 42.2%
[23]
  viability, T/C: 18.4%
[24]
  viability, T/C: 1.12%
[25]
  viability, T/C: 0.47%
[26]
  viability, T/C: 0.29%
[27]
  viability, T/C: 0.37%
[28]
  viability, T/C: 0.61%
[29]
  viability, T/C: 0.46%

## CN(C)C/C=C/C(=O)Nc1cc2c(Nc3ccc(F)c(Cl)c3)ncnc2cc1O[C@H]1CCOC1 + C=CC(=O)N1CCN(c2nc(OCC3CCCN3C)nc3c2CCN(c2cccc4cccc(C)c24)C3)CC1CC#N
[52]
  IC50: > 100 nM
[1]
  IC50: > 100 nM
[2]
  IC50: > 100 nM
[3]
  IC50: > 100 nM
[4]
  IC50: < 0.316 nM
Second compound 0.0316 µM, first compound 0.000316 µM
  viability, T/C: 82.1%
Second compound 0.0316 µM, first compound 0.001 µM
  viability, T/C: 86.9%
Second compound 0.0316 µM, first compound 0.00316 µM
  viability, T/C: 98.2%
Second compound 0.0316 µM, first compound 0.01 µM
  viability, T/C: 68.6%
[53]
  viability, T/C: 78.3%
[54]
  viability, T/C: 75.8%
[36]
  viability, T/C: 89.2%
[37]
  viability, T/C: 98%
[38]
  viability, T/C: 65.7%
[39]
  viability, T/C: 62.1%
[6]
  viability, T/C: 65.9%
[7]
  viability, T/C: 64.1%
[40]
  viability, T/C: 77.6%
[41]
  viability, T/C: 70.7%
[42]
  viability, T/C: 69.3%
[43]
  viability, T/C: 62.2%
[12]
  viability, T/C: 66.2%
[13]
  viability, T/C: 70.7%
[44]
  viability, T/C: 59.1%
[45]
  viability, T/C: 72.6%
[46]
  viability, T/C: 70%
[47]
  viability, T/C: 72.1%
[18]
  viability, T/C: 53.1%
[19]
  viability, T/C: 59.6%
[48]
  viability, T/C: 0.31%
[49]
  viability, T/C: 0.19%
[50]
  viability, T/C: 0.24%
[51]
  viability, T/C: 0.2%
[24]
  viability, T/C: 0.21%
[25]
  viability, T/C: 0.47%

From PubChem BioAssay AID1963863 (Molecular Pharmacology Branch, DTP, NCI, 2024)
